Assay results taken from patent publication US5817692A, “Endoperoxides useful as antiparasitic agents” (priority 1996, dated 1998).
Read-outs that look alike come from different tables or passages of the source.

Assays:
Type in all cases: cell-based
Plasmodium falciparum = assay: antimalarial activity, tritiated-hypoxanthine incorporation assay in human red blood cells; settings: Erythrocyte, read-out: IC50 (inhibition of 50% of the replication of Plasmodium falciparum)
Method: (§1) The protozoan Plasmodium falciparum is a causative agent of malaria, the single most critical infectious disease of mankind. The antimalarial activity of the endoperoxides was determined according to the method of Desjardins et al. (16) as modified by Milhous et al. (17). Briefly, the antimalarial activity of the endoperoxides was tested in a tritiated-hypoxanthine incorporation assay by determining the concentration of the test compound needed to inhibit 50% of the replication of Plasmodium falciparum (IC50) in human red blood cells.
It is particularly noted that JHU 2886 has an excellent therapeutic index (ratio of activity to toxicity). At 1 μM, JHU 2886 has a therapeutic index of 70/0, whereas at the same concentration artimisinin has a therapeutic index of 76/10 (7.6), and atovaquone has a therapeutic index of only 95/17 (5.6). […] The first two compounds are known while the following five are being disclosed for the first time. […] Compounds of this formula wherein Ar is p-FCH2 Ph or p-HOCH2 Ph and X is CH2 are also expected to be particularly useful. […]

Toxoplasma gondii = assay: inhibition of intracellular replication of T. gondii in infected L929 cells, uracil incorporation assay; design: Activity, Mean: unit not given here; settings: for Activity, Mean: uracil incorporation; for inhibition at 0.1 µM / inhibition at 1 µM / inhibition at 10 µM / inhibition at 50 µM: Toxoplasma gondii, L929, read-out: Activity, % of control (inhibition)
Method: Toxoplasma gondii is the causative agent of cerebral toxoplasmic encephalitis, an AIDS-related opportunistic infection. The biological activity of the endoperoxide JHU 2886 of the present invention was measured against Toxoplasma gondii cultured in L929 cells. The inhibitory activity of the synthetic organic endoperoxide was tested by measuring the intracellular replication of T. gondii in infected L929 cells. The inhibition of the intracellular replication of T. gondii was determined using the uracil incorporation assay (20). […] This compound is referred to as JHU 2886 in Table 1. In this experiment atovaquone and artemisinin were used as positive controls. Atovaquone is a broad-spectrum anti-infective drug having antimalarial and antitoxoplasmosis activity (19). | measured using the MTT assay (Promega kit) and inhibition of the | intracellular replication of T. gondii was determined using the uracil | incorporation assay.

P. falciparum NF54 = assay: antimalarial activity, P. falciparum NF54 parasites in vitro; settings: Plasmodium falciparum; P. falciparum NF54 parasites in vitro; read-out: Antimalarial Activity IC50
Method: as §1
Tables 4 and 5 show the structures and antimalarial activities of unsaturated and saturated bicyclic [2.2.2] endoperoxides of the invention. Compounds of this formula wherein R and R' are identical are particularly preferred. It is expected that compounds wherein R and R' are selected from the groups [drawing 33] will be especially useful. […]

L929 cells = assay: cytotoxicity to L929 cells, MTT assay (viability and replication); design: Toxicity, Mean: unit not given here; settings: L929 cells; for Toxicity, Mean: MTT; for inhibition at 0.1 µM / inhibition at 1 µM / inhibition at 10 µM / inhibition at 50 µM: Mus musculus, read-out: Toxicity, % of control (inhibition)
Method: Toxoplasma gondii is the causative agent of cerebral toxoplasmic encephalitis, an AIDS-related opportunistic infection. The biological activity of the endoperoxide JHU 2886 of the present invention was measured against Toxoplasma gondii cultured in L929 cells.
More specifically, the cytotoxicity of synthetic organic endoperoxide JHU 2886 was tested in L929 cells by measuring the viability and replication of exposed cells. The cytotoxicity of the compound to the cultured cells was measured using the MTT assay (Promega kit), according to the procedure of Carmichael et al. (18). MTT is an abbreviation for [3-(4,5-dimethylthiazol-2-yl)-2,5-dephenyltetrazolium bromide].
This compound is referred to as JHU 2886 in Table 1. In this experiment atovaquone and artemisinin were used as positive controls. Atovaquone is a broad-spectrum anti-infective drug having antimalarial and antitoxoplasmosis activity (19).
^1 The cytotoxicity of each compound for the cultured cells was
measured using the MTT assay (Promega kit) and inhibition of the […]

With C[C@@H]1CC[C@H]2[C@@H](C)C(=O)O[C@@H]3O[C@@]4(C)CC[C@@H]1[C@]32OO4 [Artemisinin] the IC50 (Plasmodium falciparum) was 11 nM, the “therapeutic index (ratio of activity to toxicity), quotient” value (Toxoplasma gondii; 1 μM, T. gondii activity / L929 toxicity) was 7.6 and the “Activity, Score” value (Toxoplasma gondii; 24 hours, dose 0.1 μM) was 2 (>20%-≤40%). The “Activity, Mean” value (Toxoplasma gondii; 24 hours, dose 0.1 μM) was 10106, the “Activity, Score” value (Toxoplasma gondii; 24 hours, dose 1.0 μM) was 4 (>70%-≤90%) and the “Activity, Mean” value (Toxoplasma gondii; 24 hours, dose 1.0 μM) was 3467. For the same molecule, the “Activity, Score” value (Toxoplasma gondii; 24 hours, dose 10.0 μM) was 4 (>70%-≤90%), the “Activity, Mean” value (Toxoplasma gondii; 24 hours, dose 10.0 μM) was 3470 and the “Activity, Score” value (Toxoplasma gondii; 24 hours, dose 50.0 μM) was 4 (>70%-≤90%). For the same molecule, the “Activity, Mean” value (Toxoplasma gondii; 24 hours, dose 50.0 μM) was 33322, the “Activity, Score” value (Toxoplasma gondii; 48 hours, dose 0.1 μM) was 1 (≤20%) and the “Activity, Mean” value (Toxoplasma gondii; 48 hours, dose 0.1 μM) was 15440. The “Activity, Score” value (Toxoplasma gondii; 48 hours, dose 1.0 μM) was 3 (>40%-≤70%), the “Activity, Mean” value (Toxoplasma gondii; 48 hours, dose 1.0 μM) was 6101 and the “Activity, Score” value (Toxoplasma gondii; 48 hours, dose 10.0 μM) was 4 (>70%-≤90%). The “Activity, Mean” value (Toxoplasma gondii; 48 hours, dose 10.0 μM) was 4225, the “Activity, Score” value (Toxoplasma gondii; 48 hours, dose 50.0 μM) was 4 (>70%-≤90%) and the “Activity, Mean” value (Toxoplasma gondii; 48 hours, dose 50.0 μM) was 4167. The “Activity, Score” value (Toxoplasma gondii; 72 hours, dose 0.1 μM) was 0, the “Activity, Mean” value (Toxoplasma gondii; 72 hours, dose 0.1 μM) was 8253 and the “Activity, Score” value (Toxoplasma gondii; 72 hours, dose 1.0 μM) was 4 (>70%-≤90%). The “Activity, Mean” value (Toxoplasma gondii; 72 hours, dose 1.0 μM) was 1976, the “Activity, Score” value (Toxoplasma gondii; 72 hours, dose 10.0 μM) was 4 (>70%-≤90%) and the “Activity, Mean” value (Toxoplasma gondii; 72 hours, dose 10.0 μM) was 783. The “Activity, Score” value (Toxoplasma gondii; 72 hours, dose 50.0 μM) was 4 (>70%-≤90%), the “Activity, Mean” value (Toxoplasma gondii; 72 hours, dose 50.0 μM) was 813 and the inhibition at 0.1 µM (Toxoplasma gondii; 24 hours, dose 0.1 μM) was 29.6%. For the same molecule, the inhibition at 1 µM (Toxoplasma gondii; 24 hours, dose 1.0 μM) was 75.8%, the inhibition at 10 µM (Toxoplasma gondii; 24 hours, dose 10.0 μM) was 75.8% and the inhibition at 50 µM (Toxoplasma gondii; 24 hours, dose 50.0 μM) was 76.8%. It also gave an inhibition at 0.1 µM (Toxoplasma gondii; 48 hours, dose 0.1 μM) of 10.4%, an inhibition at 1 µM (Toxoplasma gondii; 48 hours, dose 1.0 μM) of 64.6% and an inhibition at 10 µM (Toxoplasma gondii; 48 hours, dose 10.0 μM) of 75.5%. The inhibition at 50 µM (Toxoplasma gondii; 48 hours, dose 50.0 μM) was 75.8%, the inhibition at 0.1 µM (Toxoplasma gondii; 72 hours, dose 0.1 μM) was -14.1% and the inhibition at 1 µM (Toxoplasma gondii; 72 hours, dose 1.0 μM) was 72.7%. For the same molecule, the inhibition at 10 µM (Toxoplasma gondii; 72 hours, dose 10.0 μM) was 89.2%, the inhibition at 50 µM (Toxoplasma gondii; 72 hours, dose 50.0 μM) was 88.8% and the IC50 (P. falciparum NF54) was 11 nM. The “Toxicity, Score” value (L929 cells; 24 hours, dose 0.1 μM) was 1 (≤20%), the “Toxicity, Mean” value (L929 cells; 24 hours, dose 0.1 μM) was 0.103 and the “Toxicity, Score” value (L929 cells; 24 hours, dose 1.0 μM) was 1 (≤20%). For the same molecule, the “Toxicity, Mean” value (L929 cells; 24 hours, dose 1.0 μM) was 0.101, the “Toxicity, Score” value (L929 cells; 24 hours, dose 10.0 μM) was 1 (≤20%) and the “Toxicity, Mean” value (L929 cells; 24 hours, dose 10.0 μM) was 0.104. For the same molecule, the “Toxicity, Score” value (L929 cells; 24 hours, dose 50.0 μM) was 1 (≤20%), the “Toxicity, Mean” value (L929 cells; 24 hours, dose 50.0 μM) was 0.110 and the “Toxicity, Mean” value (L929 cells; 48 hours, dose 0.1 μM) was 0.213. For the same molecule, the “Toxicity, Score” value (L929 cells; 48 hours, dose 1.0 μM) was 1 (≤20%), the “Toxicity, Mean” value (L929 cells; 48 hours, dose 1.0 μM) was 0.205 and the “Toxicity, Score” value (L929 cells; 48 hours, dose 10.0 μM) was 1 (≤20%). The “Toxicity, Mean” value (L929 cells; 48 hours, dose 10.0 μM) was 0.195, the “Toxicity, Score” value (L929 cells; 48 hours, dose 50.0 μM) was 1 (≤20%) and the “Toxicity, Mean” value (L929 cells; 48 hours, dose 50.0 μM) was 0.193. For the same molecule, the “Toxicity, Mean” value (L929 cells; 72 hours, dose 0.1 μM) was 0.460, the “Toxicity, Score” value (L929 cells; 72 hours, dose 1.0 μM) was 1 (≤20%) and the “Toxicity, Mean” value (L929 cells; 72 hours, dose 1.0 μM) was 0.394. For the same molecule, the “Toxicity, Score” value (L929 cells; 72 hours, dose 10.0 μM) was 1 (≤20%), the “Toxicity, Mean” value (L929 cells; 72 hours, dose 10.0 μM) was 0.354 and the “Toxicity, Score” value (L929 cells; 72 hours, dose 50.0 μM) was 2 (>20%-≤40%). The “Toxicity, Mean” value (L929 cells; 72 hours, dose 50.0 μM) was 0.348, the inhibition at 0.1 µM (L929 cells; 24 hours, dose 0.1 μM) was 8.56% and the inhibition at 1 µM (L929 cells; 24 hours, dose 1.0 μM) was 10.3%. It also gave an inhibition at 10 µM (L929 cells; 24 hours, dose 10.0 μM) of 7.67%, an inhibition at 50 µM (L929 cells; 24 hours, dose 50.0 μM) of 2.36% and an inhibition at 0.1 µM (L929 cells; 48 hours, dose 0.1 μM) of 0%. For the same molecule, the inhibition at 1 µM (L929 cells; 48 hours, dose 1.0 μM) was 3.75%, the inhibition at 10 µM (L929 cells; 48 hours, dose 10.0 μM) was 8.44% and the inhibition at 50 µM (L929 cells; 48 hours, dose 50.0 μM) was 9.53%. It also gave an inhibition at 0.1 µM (L929 cells; 72 hours, dose 0.1 μM) of 0%, an inhibition at 1 µM (L929 cells; 72 hours, dose 1.0 μM) of 9.97% and an inhibition at 10 µM (L929 cells; 72 hours, dose 10.0 μM) of 19.2%. For the same molecule, the inhibition at 50 µM (L929 cells; 72 hours, dose 50.0 μM) was 20.6%.
